What all share (type): cell-based
The subject of experiment [1] is Human osteosarcoma U20S cells. As to the kind of experiment: Assay to measure lysosome and autolysosome formation (acidic vesicle formation, LysoView/LysoTracker staining). To be noted: U20S cells, relative to DMSO-treated control (10 μM). In a few lines: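 U2OS cells treated with compounds in DMSO for 24 h, then stained 45 min at 37 °C with 1× LysoView 633 or 50 nM LysoTracker Deep Red, with Hoechst nuclear counterstain. Live-cell fluorescence imaging at 37 °C; acidic vesicle formation judged against DMSO-treated control.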

Another experiment concerns SH-SY5Y cells. In words: Acidic vesicle formation in SH-SY5Y cells (LysoTracker Deep Red). To be noted: 24 hours. The procedure:
This is evidence for significant stimulation of autophagy by this compound under these conditions. A brief description of the procedure is outlined here: • Day 1: Cells were seeded at 15K cells/well in the middle 60 wells of 6×96 well Cellvis imaging plates • Day 2: Media was replaced with 90 μl of DMEM/F12 (+10% FBS/1% P/S) containing NucBlue Live and the cells were treated with 10 μl of compound (10× concentrated) in triplicate for 24 hours. • Day3: Treatment was removed and cells were incubated for 30 minutes with LysoTracker™ Deep Red dye. Cells were washed twice with media and immediately imaged on EVOS M7000 at x20 (6 images per well, 30 minutes imaging time/plate). Images were analysed using Celleste Image analysis software.

For experiment [2], the system named is U2OS cell line stabling expressing RFP-eGFP-hLC3b. In words: Tandem reporter assay (autophagic flux, RFP-only puncta). To be noted: Homo sapiens, RFP-only puncta as percentage of DMSO-treated control, 24 hours; for activity at 1 µM: read-out: Autolysosome % DMSO activity (compound concentration of 1 μM); for activity at 10 µM: read-out: Autolysosome % DMSO activity (compound concentration of 10 μM). As to the method:
Selected compounds of this invention were also assessed for their ability to stimulate autophagy using a U20S cell line stabling expressing RFP-eGFP-hLC3b (a tandem reporter cell line). During the process of autophagy, the cargo to be degraded is first enveloped by organelles called autophagosomes. These autophagosomes then fuse with lysosomes, causing them to become acidified and their digestive enzymes to become activated. The term “autophagic flux” is used to represent the dynamic process of autophagy: autophagic flux refers to the whole process of autophagy, including autophagosome formation, maturation, fusion with lysosomes, subsequent breakdown and the release of macromolecules back into the cytosol (Zhang X J, Chen S, Huang K X, Le W D. Why should autophagic flux be assessed? Acta Pharmacol Sin. 2013 May; 34(5): 595-9. doi: 10.1038/aps.2012.184. Epub 2013 Mar. 11). Compounds that stimulate autophagic flux stimulate the dynamic process of autophagy (the whole process of autophagy).
LC3b is a protein found in the membrane of autophagosomes which has been used to generate genetic reporters of autophagy in cells. In these systems a tandem fusion of LC3b is engineered with two fluorescent proteins of different wavelengths: one which is acid sensitive (for example eGFP, which fluoresces green) and the other which is acid insensitive (for example RFP, which fluoresces red). Cells expressing RFP-eGFP-hLC3b can be examined using fluorescent microscopy: the autophagosomes present will fluoresce in both channels (either yellow in an overlay of both channels or puncta that are present in both the individual red and green channels) but the autolysosomes present will fluoresce in the RFP (red) channel only. Using a fluorescent microscope, the number of autophagosomes and autolysosomes can be counted, allowing for the monitoring of both the induction of autophagy (total puncta count) and the rate of autophagic flux (ratio of red-only to red-and-green puncta). The influence of small molecules on autophagy induction and flux can be assessed using this system by comparison to a non-treated control.
Representative Procedure: Human osteosarcoma U2OS cells stably expressing RFP-eGFP-hLC3b were seeded (10,000 cells/well) into a 96-well glass-bottom plate (Cell Carrier Ultra, Perkin Elmer) in DMEM Glutamax media (Gibco) supplemented with 10% Fetal Bovine Serum (FBS) and antibiotics (100 u/ml penicillin, 100 μg/ml streptomycin, Invitrogen), then incubated overnight in a humified atmosphere at 37° C. and 5% CO2. The cells were then treated with the compounds of interest, dissolved in DMSO, in a duplicated 5- or 10-point dose-response. 8 wells were treated with an equivalent volume of DMSO, 4 with 0.3 μM torin-1 as a positive control (MCE) and 4 wells with 0.4 μM torin-1 plus 0.2 μM bafilomycin (MCE) as a control for flux inhibition. The cells were returned to the incubator and the treatment continued for 24 hours. After treatment, the media was aspirated off and the cells fixed with a solution of 4% formaldehyde+1% glutaraldehyde (Sigma) in dPBS (plus magnesium and calcium, Gibco).
Fixation was allowed to proceed for 15 minutes at room temperature then the fixative solution discarded and replaced with PBS (Gibco) plus Hoescht 33342 ([…], Sigma). After 30 minutes the plates were imaged on an Opera Phenix confocal microscope (Perkin-Elmer) using a 40× water objective, collecting using DAPI, mCherry and GFP channels. Cells were detected based upon the staining of their nuclei with DAPI using the Harmony image analysis software (Perkin-Elmer) and the number of autophagosomes (GFP and RFP puncta) and autolysosomes (RFP only puncta) per cell were counted using the spot picking function within the software.
In general terms: Reporter assays use an easily measured gene product as a stand-in for the process of interest.

Here are results for 19 compounds from US20250049776A1, “AUTOPHAGY INDUCING COMPOUNDS AND USES THEREOF, IN PARTICULAR FOR A SYSTEMIC TREATMENT OF DISEASES AND CONDITIONS” (Samsara Therapeutics Inc., priority 2021, published 2025).

Take `CC(C)N(C(=O)c1ccc(-c2cnn(-c3ccc(F)cc3)c2)[nH]1)C1CCNCC1` [Compound 310, 5-[1-(4-fluorophenyl)-1H-pyrazol-4-yl]-N-(piperidin-4-yl)-N-(propan-2-yl)-1H-pyrrole-2-carboxamide]: the “increase in acidic vesicle formation” value in experiment [1] is listed as “only a slight increase”. Moreover, the “Fold change at compound concentration of 0.8 μM (acidic vesicle formation relative to DMSO-treated control)” value in the experiment with SH-SY5Y cells (0.8 μM) came out at 1.9. Besides, the “Fold change at compound concentration of 10 μM (acidic vesicle formation relative to DMSO-treated control)” value with SH-SY5Y cells (10 μM) worked out at 4.5.

`CCN(C(=O)c1csc(-c2cnn(-c3ccccc3)n2)n1)[C@H]1CCNC1` [Compound 364, N-ethyl-2-(2-phenyl-2H-1,2,3-triazol-4-yl)-N-[(3S)-pyrrolidin-3-yl]-1,3-thiazole-4-carboxamide]: the activity at 1 µM in experiment [2] came to 166%.

`CCN(C(=O)c1csc(-c2cnn(-c3ccccc3)n2)n1)[C@@H]1CCNC1` [Compound 365, N-ethyl-2-(2-phenyl-2H-1,2,3-triazol-4-yl)-N-[(3R)-pyrrolidin-3-yl]-1,3-thiazole-4-carboxamide]: in experiment [2], the activity at 1 µM came out at 183%.

On to `CCN(C(=O)c1csc(-c2cnn(-c3ccccn3)c2)n1)[C@H]1CCNC1` [Compound 367, N-ethyl-2-[1-(pyridin-2-yl)-1H-pyrazol-4-yl]-N-[(3S)-pyrrolidin-3-yl]-1,3-thiazole-4-carboxamide], for which, in experiment [2], the activity at 1 µM worked out at 114% and the activity at 10 µM was 215%.

`O=C(c1csc(-c2cnn(-c3ccccc3OC(F)(F)F)c2)n1)N1C[C@H]2C[C@@H]1CN2` [Compound 376, (1R,4R)-2-(2-{1-[2-(trifluoromethoxy)phenyl]-1H-pyrazol-4-yl}-1,3-thiazole-4-carbonyl)-2,5-diazabicyclo[2.2.1]heptane]: in experiment [2], the activity at 1 µM worked out at 176% and the activity at 10 µM was found to be 260%.

Turning to `O=C(c1coc(-c2cnn(-c3ccccc3OC(F)(F)F)c2)n1)N1C[C@H]2C[C@@H]1CN2` [Compound 378, (1R,4R)-2-(2-{1-[2-(trifluoromethoxy)phenyl]-1H-pyrazol-4-yl}-1,3-oxazole-4-carbonyl)-2,5-diazabicyclo[2.2.1]heptane], in experiment [2], the activity at 1 µM is 122% and the activity at 10 µM came to 199%.

For `CC(C)N(C(=O)c1coc(-c2cnn(-c3ccccc3)c2)n1)[C@H]1CCNC1` [Compound 381, 2-(1-phenyl-1H-pyrazol-4-yl)-N-(propan-2-yl)-N-[(3S)-pyrrolidin-3-yl]-1,3-oxazole-4-carboxamide], in experiment [2], the activity at 1 µM was 118% and the activity at 10 µM was 179%.

Consider `CC(C)N(C(=O)c1csc(-c2cnn(-c3ccccc3)c2)n1)C1CCNCC1(F)F` (stereo not shown) [Compound 382, N-(3,3-difluoropiperidin-4-yl)-2-(1-phenyl-1H-pyrazol-4-yl)-N-(propan-2-yl)-1,3-thiazole-4-carboxamide], for which, in experiment [2], the activity at 1 µM turned out to be 96% and the activity at 10 µM was found to be 108%.

Turning to `CC(C)N(C(=O)c1csc(-c2cnn(-c3ccccc3)c2)n1)C1CCNCC1F` (stereo not shown) [Compound 383, N-(3-fluoropiperidin-4-yl)-2-(1-phenyl-1H-pyrazol-4-yl)-N-(propan-2-yl)-1,3-thiazole-4-carboxamide], in experiment [2], the activity at 1 µM came out at 98% and the activity at 10 µM came out at 194%.

`CC(C)N(C(=O)c1csc(-c2cnn(C)c2)n1)[C@H]1CCNC1` [Compound 389, 2-(1-methyl-1H-pyrazol-4-yl)-N-(propan-2-yl)-N-[(3S)-pyrrolidin-3-yl]-1,3-thiazole-4-carboxamide]: in experiment [2], the activity at 1 µM was 101% and the activity at 10 µM stood at 108%.

As for `CC(C)N(C(=O)c1csc(-c2cnn(C(C)C)c2)n1)[C@H]1CCNC1` [Compound 390, N-(propan-2-yl)-2-[1-(propan-2-yl)-1H-pyrazol-4-yl]-N-[(3S)-pyrrolidin-3-yl]-1,3-thiazole-4-carboxamide], in experiment [2], the activity at 1 µM stood at 106% and the activity at 10 µM came out at 116%.

As for `CC(C)N(C(=O)c1csc(-c2cnn(C(C)(C)C)c2)n1)[C@H]1CCNC1` [Compound 391, 2-(1-tert-butyl-1H-pyrazol-4-yl)-N-(propan-2-yl)-N-[(3S)-pyrrolidin-3-yl]-1,3-thiazole-4-carboxamide], in experiment [2], the activity at 1 µM stood at 109% and the activity at 10 µM was 161%.

On to `CC(C)N(C(=O)c1csc(-c2cnn(C)c2)n1)C1CCNCC1` [Compound 392, 2-(1-methyl-1H-pyrazol-4-yl)-N-(piperidin-4-yl)-N-(propan-2-yl)-1,3-thiazole-4-carboxamide], for which, in experiment [2], the activity at 1 µM turned out to be 97% and the activity at 10 µM worked out at 109%.

Regarding `CC(C)N(C(=O)c1csc(-c2cnn(C(C)C)c2)n1)C1CCNCC1` [Compound 393, N-(piperidin-4-yl)-N-(propan-2-yl)-2-[1-(propan-2-yl)-1H-pyrazol-4-yl]-1,3-thiazole-4-carboxamide], in experiment [2], the activity at 1 µM came out at 106% and the activity at 10 µM is 110%.

As to `CC(C)N(C(=O)c1csc(-c2cnn(C(C)(C)C)c2)n1)C1CCNCC1` [Compound 394, 2-(1-tert-butyl-1H-pyrazol-4-yl)-N-(piperidin-4-yl)-N-(propan-2-yl)-1,3-thiazole-4-carboxamide], in experiment [2], the activity at 1 µM was found to be 114% and the activity at 10 µM turned out to be 176%.

With `CC(C)N(C(=O)c1csc(-c2cnn(-c3ccccc3Cl)c2)n1)[C@H]1CCNC1` [Compound 395, 2-[1-(2-chlorophenyl)-1H-pyrazol-4-yl]-N-(propan-2-yl)-N-[(3S)-pyrrolidin-3-yl]-1,3-thiazole-4-carboxamide], in experiment [2], the activity at 1 µM was 137% and the activity at 10 µM stood at 191%.

Take `CC(C)N(C(=O)c1csc(-c2cnn(-c3ccccc3OC(F)(F)F)c2)n1)[C@H]1CCNC1` [Compound 396, N-(propan-2-yl)-N-[(3S)-pyrrolidin-3-yl]-2-{1-[2-(trifluoromethoxy)phenyl]-1H-pyrazol-4-yl}-1,3-thiazole-4-carboxamide]: in experiment [2], the activity at 1 µM turned out to be 138% and the activity at 10 µM was 78%.

As to `Cc1ccccc1-n1cc(-c2nc(C(=O)N(C(C)C)[C@H]3CCNC3)cs2)cn1` [Compound 397, 2-[1-(2-methylphenyl)-1H-pyrazol-4-yl]-N-(propan-2-yl)-N-[(3S)-pyrrolidin-3-yl]-1,3-thiazole-4-carboxamide], in experiment [2], the activity at 1 µM was determined as 115% and the activity at 10 µM came to 191%.

For `COc1ccccc1-n1cc(-c2nc(C(=O)N(C(C)C)[C@H]3CCNC3)cs2)cn1` [Compound 398, 2-[1-(2-methoxyphenyl)-1H-pyrazol-4-yl]-N-(propan-2-yl)-N-[(3S)-pyrrolidin-3-yl]-1,3-thiazole-4-carboxamide], in experiment [2], the activity at 1 µM was determined as 116% and the activity at 10 µM came to 190%.
